Our source for the GI50 and TGI values is PubChem BioAssay (NCI).

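A five-concentration, 48-hour dose response in 96-well plates underlies each endpoint, interpolated linearly between surrounding concentrations. Here, GI50 denotes the concentration required for 50% inhibition of growth. The concentration for full growth arrest is given as TGI.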 Where only a bound is given, the exact number is not on record here.

Test systems include SF-295 CNS; HOP-62 NSCLC; SF-268 CNS; NCI-H522 lung; SNB-75 CNS; MDA-MB-231 breast; HOP-92 NSCLC; KM12 colon; COLO 205 colon; CCRF-CEM leukemia.
Common to all, as to assay: growth of human tumour cells (NCI), 48 h

Turning to `O=C(c1ccccc1)c1ccccc1-c1ccccc1`, the GI50 is 1.85 µM in the experiment on SF-295 CNS; 5.38 µM in the experiment with HOP-62 NSCLC; 6.55 µM in the experiment on SF-268 CNS; 0.74 µM in the experiment on NCI-H522 lung; 2.11 µM in the experiment with SNB-75 CNS; 5.14 µM in the experiment with MDA-MB-231 breast. Moreover, the GI50 with HOP-92 NSCLC was 3.36 µM; in the experiment on KM12 colon, 1.16 µM; in the experiment on COLO 205 colon, 2.87 µM. The TGI in the experiment on SF-295 CNS is 29 µM; with HOP-62 NSCLC, above 100 µM; in the experiment with SF-268 CNS, above 100 µM; with NCI-H522 lung, 4.06 µM; in the experiment with SNB-75 CNS, 19.8 µM; in the experiment on MDA-MB-231 breast, above 100 µM. Further, the TGI in the experiment with HOP-92 NSCLC was found to be 47.1 µM; with KM12 colon, 43.3 µM; in the experiment with COLO 205 colon, 8.37 µM.

As to `O=C(O)CCN(CCCCN(CCC(=O)O)CCC(=O)O)CCC(=O)O`, the TGI with SF-295 CNS, in the experiment with CCRF-CEM leukemia, with HOP-62 NSCLC, with SF-268 CNS, with NCI-H522 lung and with SNB-75 CNS was above 100 µM in each case. For the same compound, the TGI with HOP-92 NSCLC, in the experiment with KM12 colon and with COLO 205 colon was above 100 µM each time.

Take `CCOC(=O)/C(C=Nc1ccc(-c2nc3ccccc3[nH]2)cc1)=C(/C)O`: the GI50 in the experiment on SF-295 CNS was 16.4 µM; in the experiment on HOP-62 NSCLC, 19.7 µM; in the experiment with SF-268 CNS, 11.7 µM; with NCI-H522 lung, 10.7 µM; in the experiment on MDA-MB-231 breast it was 9.65 µM; in the experiment with HOP-92 NSCLC it was 19.4 µM. The GI50 with KM12 colon was 7.8 µM; in the experiment with COLO 205 colon it was 10.7 µM. The TGI is above 50 µM with SF-295 CNS; above 50 µM in the experiment on HOP-62 NSCLC; 34.5 µM in the experiment with SF-268 CNS; 26.4 µM with NCI-H522 lung; 31.3 µM in the experiment on MDA-MB-231 breast; above 50 µM with HOP-92 NSCLC. The TGI was determined as 24 µM in the experiment on KM12 colon and 33.4 µM with COLO 205 colon.

On to `O=c1[nH]nnc2c1ncn2C1OC(CO)C(O)C1O` (stereo not drawn), for which the GI50 in the experiment with SF-295 CNS was 1.65 µM; in the experiment with CCRF-CEM leukemia, 3.19 µM; with HOP-62 NSCLC it was 10.7 µM; with SF-268 CNS it was 19.1 µM; with NCI-H522 lung it was 6.49 µM; in the experiment on SNB-75 CNS, 0.99 µM. In addition, the figures for the GI50 with MDA-MB-231 breast, with KM12 colon and with COLO 205 colon were 4.91 µM, 11.8 µM and 6.09 µM, respectively. In addition, the TGI is 47 µM in the experiment on SF-295 CNS; above 100 µM with CCRF-CEM leukemia; above 100 µM in the experiment with HOP-62 NSCLC; above 100 µM in the experiment on SF-268 CNS; above 100 µM in the experiment on NCI-H522 lung; above 100 µM in the experiment on SNB-75 CNS. In addition, the TGI in the experiment on MDA-MB-231 breast is 76.9 µM; in the experiment on KM12 colon, above 100 µM; in the experiment with COLO 205 colon, above 100 µM.

With `Cc1cc(CC(=O)NCCO)n(CCO)c(=O)c1`, the TGI in the experiment on SF-295 CNS, with CCRF-CEM leukemia, in the experiment with HOP-62 NSCLC, with SF-268 CNS, with NCI-H522 lung and in the experiment with SNB-75 CNS was above 100 µM each time. The TGI in the experiment on HOP-92 NSCLC, with KM12 colon and with COLO 205 colon was above 100 µM throughout.

For the compound `O=C(Nc1ccc([As](=O)(O)O)cc1)Nc1cccc(Cl)c1Cl`, the TGI in the experiment on SF-295 CNS is above 100 µM; with HOP-62 NSCLC, above 100 µM; in the experiment on SF-268 CNS it was above 100 µM; in the experiment on NCI-H522 lung, above 100 µM; in the experiment with SNB-75 CNS, 65.4 µM; in the experiment on MDA-MB-231 breast, above 100 µM. For the same compound, the TGI in the experiment with HOP-92 NSCLC, with KM12 colon and with COLO 205 colon was above 100 µM throughout.

For `NC(=O)C(=O)N/N=C1\C(=O)N(c2ccc(Cl)cc2Cl)C(=O)C1C(=O)Nc1ccc(Cl)cc1Cl` (stereo not drawn), the TGI in the experiment with SF-295 CNS, in the experiment on CCRF-CEM leukemia, in the experiment with HOP-62 NSCLC, in the experiment on SF-268 CNS, with NCI-H522 lung and with SNB-75 CNS was above 100 µM in each case. In addition, the TGI in the experiment on HOP-92 NSCLC, with KM12 colon and in the experiment on COLO 205 colon was above 100 µM in each case.

As to `O=C(Oc1cccc(F)c1OC(=O)c1cccc(O)c1)c1cccc(O)c1`, the GI50 in the experiment with SF-295 CNS is 36.1 µM; in the experiment with HOP-62 NSCLC it was 50.7 µM; with SF-268 CNS, 11.2 µM; with NCI-H522 lung, 13.4 µM; in the experiment on SNB-75 CNS it was 35.5 µM; with MDA-MB-231 breast it was above 100 µM. The GI50 with HOP-92 NSCLC is 46.6 µM; in the experiment with KM12 colon it was 23.1 µM; in the experiment on COLO 205 colon, 24.4 µM. For the same compound, the TGI is above 100 µM in the experiment with SF-295 CNS; above 100 µM in the experiment on HOP-62 NSCLC; above 100 µM in the experiment on SF-268 CNS; 48.8 µM in the experiment with NCI-H522 lung; above 100 µM in the experiment on SNB-75 CNS; above 100 µM in the experiment with MDA-MB-231 breast. Besides, the TGI was above 100 µM in the experiment with HOP-92 NSCLC, above 100 µM in the experiment with KM12 colon and 73.7 µM in the experiment on COLO 205 colon.

`NS(=O)(=O)c1ccc(-n2nc(-c3ccc(Cl)cc3)cc2-c2cc(O)ccc2O)cc1`: the GI50 with SF-295 CNS is 17.6 µM; in the experiment on CCRF-CEM leukemia it was 3.14 µM; in the experiment with SF-268 CNS, 10.5 µM; in the experiment on NCI-H522 lung, 2.58 µM; in the experiment on MDA-MB-231 breast it was 3.32 µM; with HOP-92 NSCLC it was 16 µM. Further, the GI50 in the experiment with KM12 colon is 13.4 µM. For the same compound, the TGI amounted to 33.5 µM with SF-295 CNS; 66.6 µM with CCRF-CEM leukemia; 26.2 µM in the experiment with SF-268 CNS; 6.71 µM in the experiment with NCI-H522 lung; 13.9 µM in the experiment on MDA-MB-231 breast; 38.9 µM in the experiment with HOP-92 NSCLC. For the same compound, the TGI in the experiment with KM12 colon is 32.6 µM.

As to `COc1ccc(C(=S)N2CCN(c3cccc(C)c3)CC2)cc1OC`, the GI50 in the experiment with SF-295 CNS is 4.26 µM; in the experiment with CCRF-CEM leukemia it was above 100 µM; in the experiment with HOP-62 NSCLC, 5.53 µM; in the experiment with SF-268 CNS, 6.18 µM; in the experiment on SNB-75 CNS, 2.16 µM; in the experiment on MDA-MB-231 breast it was 5.85 µM. For the same compound, the GI50 with HOP-92 NSCLC was 10.5 µM; with KM12 colon, 2.82 µM; in the experiment on COLO 205 colon, 3.88 µM. Moreover, the TGI in the experiment with SF-295 CNS was 44.8 µM; with CCRF-CEM leukemia it was above 100 µM; with HOP-62 NSCLC, 29.4 µM; with SF-268 CNS it was 86.8 µM; with SNB-75 CNS, 11.9 µM; in the experiment on MDA-MB-231 breast, above 100 µM. In addition, the TGI with HOP-92 NSCLC was 91.4 µM; in the experiment on KM12 colon, above 100 µM; in the experiment with COLO 205 colon, above 100 µM.
